# Laboratory results reported in US4749703A, “Calcium antagonist piperazine derivatives, and compositions therefor” (Dainippon Pharmaceutical Co., Ltd., priority 1984, dated 1988).
# Structures can show the parent of a compound that is named as a salt.
# Assays:
# [1] = tested on: spontaneously hypertensive rats (SHR); assay: Antihypertensive activity in spontaneously hypertensive rats (SHR); type: in vivo, male SHR (Okamoto and Aoki strain) rats; conditions: for Peak time (time of maximum hypotensive effect): p.o.; for duration of antihypertensive activity (in words): compared with commercially available calcium antagonists
# Experimental: The animals used were male SHR [Okamoto and Aoki strain; cf. Jap. Circul. […] Proc. Soc. […] The other end of the cannula was exposed through the skin on the back of the neck and fixed. After 1 to 4 days, the aortic cannula was connected to a pressure transducer (produced by Nihon Koden Co., Ltd., Japan; Model MP-4T), and conscious blood pressure was measured by direct method. On the day of the experiment, the blood pressure was measured for one hour prior to dosing. The test compound, suspended in 0.5% aqueous tragacanth solution, was administered orally at a volume of 3.0 ml/kg and the blood pressure was measured continuously for 5 hours.
# The changes of blood pressure are expressed by the mean pressure calculated from the values of systolic and diastolic pressure.
# [2] = tested on: methacholine-induced ST elevation; assay: Preventive effect on methacholine-induced ST elevation (experimental model of variant angina); type: in vivo, Male SD strain rats; conditions: i.v.; for ST elevation, administn. of M (8 μg) after administn. of test compd. (at peak time): ± S.E.; for preventive effect on the ST elevation (in words): compared with diltiazem hydrochloride
# Experimental: (2) Preventive effect on methacholine-induced ST elevation (effect in experimental model of variant angina)
# The test was carried out according to the method of Sakai et al. [cf. J. Pharmacol. Methods, 5, 325-336 (1981)].
# Male SD strain rats, weighing about 500 g, were anesthetized with 60 mg/kg (i.p.) of sodium pentobarbital. Lead II electrocardiogram was recorded. The ST elevation was produced with 8.0 μg of metacholine given into the coronary […] through the cannula inserted from the right carotid artery. The test compound, dissolved in 5% ethanol-physiological saline solution, was administered intravenously. The amplitude of ST elevation was measured by means of the computer 0.5, 5 and 10 minutes after the administration of the test compound and afterward at intervals of 10-minute. The effect of the test compound was evaluated by comparing the amplitude of ST elevation after administration of the test compound with that before the administration. Each group of 5 rats was used for each dose of the test compound.
# The abbreviation M in the table represents metacholine.
# [3] = tested on: vasopressin-induced ST depression; assay: Preventive effect on vasopressin-induced ST depression (experimental model of angina pectoris); type: in vivo, Male Donryu strain rats; parameters: key to Preventive effect on ST depression, 7 hours / Preventive effect on ST depression, 1 hour / Preventive effect on ST depression, 5 hours / Preventive effect on ST depression, 3 hours: +: Significantly different from vehicle control (P < 0.05); -: No significant difference; conditions: for Preventive effect on ST depression, 1 hour: 1 hour following administration; for Preventive effect on ST depression, 3 hours: 3 hours following administration; for Preventive effect on ST depression, 5 hours: 5 hours following administration; for Preventive effect on ST depression, 7 hours: 7 hours following administration; for preventive effect on the ST depression (in words): p.o., compared with diltiazem hydrochloride
# Experimental: (1) Preventive effect on vasopressin-induced ST depression (effect in experimental model of angina pectoris)
# The test was carried out according to the method of Hatano et al. [cf. Pharmacometrics, 19, 311-317 (1980)].
# Male Donryu strain rats, weighing 130-180 g, were anesthetized with 60 mg/kg (i.p.) of sodium pentobarbital. Lead II electrocardiogram was recorded. The ST depression produced with 0.2 IU/kg (i.v.) of vasopressin was recorded at intervals of a given period for 5 minutes after the administration of vasopressin. The test compound, suspended in 0.5% aqueous tragacanth solution, was administered orally 1, 3, 5 and 7 hours before the administration of vasopressin. The amplitude of ST depression was measured by means of the computer, and the data were analyzed statistically by two-dimensional analysis between the control group and the treated group to evaluate the effect of the test compound. Each group of 5 rats was used for each dose of the test compound.
# in vivo = conditions: mouse, mortality for 7 days
# Text: STD-ddY strain mice were used in groups of 10 animals each.
# [4] = 0.3 mg/kg, * P < 0.05, ** P < 0.01
smiles,measurement,setting,value
"O=C(CCCN1CCN(c2ccc(F)cc2)CC1)NC1c2ccccc2C[S+]([O-])c2ccccc21 (single isomer, unassigned) [Example 136, 11-[4-[4-(4-fluorophenyl)-1-piperazinyl]butyrylamino]-6,11-dihydrodibenzo[b,e]thiepin-5-oxide-A]",Peak time (time of maximum hypotensive effect),[1]; 30 mg/kg,5 h
same,maximum hypotensive effect (decrease compared with the initial blood pressure),"[1]; oral, 30 mg/kg",12-14%
same,time of maximum hypotensive effect,"[1]; oral, 30 mg/kg",4 to 5 h
"Cc1ccc2c(c1)C(NC(=O)CCCN1CCN(c3ccc(F)cc3)CC1)c1ccccc1CS2 (stereo not shown) [2(1), 11-[4-[4-(4-fluorophenyl)-1-piperazinyl]butyrylamino]-2-methyl-6,11-dihydrodibenzo[b,e]thiepin]",duration of antihypertensive activity (in words),[1],longer duration of antihypertensive activity than that of the commercially available calcium antagonists
"Cc1ccc2c(c1)C(NC(=O)CCCN1CCN(c3ccc(F)cc3)CC1)c1ccccc1CS2 (stereo not shown) [2(3), 11-[4-[4-(4-fluorophenyl)-1-piperazinyl]butyrylamino]-2-methyl-6,11-dihydrodibenzo[b,e]thiepin]",Peak time (time of maximum hypotensive effect),[1]; 30 mg/kg,4 h
same,maximum hypotensive effect (decrease compared with the initial blood pressure),"[1]; oral, 30 mg/kg",12-14%
same,time of maximum hypotensive effect,"[1]; oral, 30 mg/kg",4 to 5 h
same,peak time (preventive effect on ST elevation),[2]; 0.1 mg/kg,5 min
same,"ST elevation, administn. of M (8 μg) after administn. of test compd. (at peak time)","[2]; 0.1 mg/kg, * P < 0.05",+0.19 ± 0.05 ΔmV
same,peak time (preventive effect on ST elevation),[2]; 0.3 mg/kg,0.5 min
same,"ST elevation, administn. of M (8 μg) after administn. of test compd. (at peak time)",[2]; [4],+0.13 ± 0.02 ΔmV
same,preventive effect on the ST elevation (in words),[2],preventive effect on the ST elevation comparable to that of diltiazem hydrochloride
same,"Preventive effect on ST depression, 1 hour",[3]; 3 mg/kg p.o.,-
same,"Preventive effect on ST depression, 3 hours",[3]; 3 mg/kg p.o.,-
same,"Preventive effect on ST depression, 5 hours",[3]; 3 mg/kg p.o.,-
same,"Preventive effect on ST depression, 7 hours",[3]; 3 mg/kg p.o.,-
same,"Preventive effect on ST depression, 1 hour",[3]; 10 mg/kg p.o.,+
same,"Preventive effect on ST depression, 3 hours",[3]; 10 mg/kg p.o.,+
same,"Preventive effect on ST depression, 5 hours",[3]; 10 mg/kg p.o.,+
same,"Preventive effect on ST depression, 7 hours",[3]; 10 mg/kg p.o.,-
same,"Preventive effect on ST depression, 1 hour",[3]; 30 mg/kg p.o.,+
same,"Preventive effect on ST depression, 7 hours",[3]; 30 mg/kg p.o.,+
same,preventive effect on the ST depression (in words),[3],more prolonged preventive effect on the ST depression than diltiazem hydrochloride
"O=C(CCCN1CCN(c2ccccc2)CC1)NC1c2ccccc2CSc2ccccc21 (stereo not shown) [6(1), 11-[4-(4-phenyl-1-piperazinyl)butyrylamino]-6,11-dihydrodibenzo[b,e]thiepin]",peak time (preventive effect on ST elevation),[2]; 0.1 mg/kg,0.5 min
same,"ST elevation, administn. of M (8 μg) after administn. of test compd. (at peak time)","[2]; 0.1 mg/kg, * P < 0.05",+0.15 ± 0.05 ΔmV
same,peak time (preventive effect on ST elevation),[2]; 0.3 mg/kg,5 min
same,"ST elevation, administn. of M (8 μg) after administn. of test compd. (at peak time)",[2]; [4],+0.07 ± 0.01 ΔmV
same,preventive effect on the ST elevation (in words),[2],preventive effect on the ST elevation comparable to that of diltiazem hydrochloride
"O=C(CCCN1CCN(c2ccc(F)cc2)CC1)NC1c2ccccc2C=Cc2ccccc21 [79(3), 5-[4-[4-(4-fluorophenyl)-1-piperazinyl]butyrylamino]-5H-dibenzo[a,d]cycloheptene]",LD50 at 168 h,"in vivo; ip, single intraperitoneal administration",> 1000 mg/kg
same,LD50 at 168 h,in vivo; single oral administration,> 4000 mg/kg
same,peak time (preventive effect on ST elevation),[2]; 0.1 mg/kg,5 min
same,"ST elevation, administn. of M (8 μg) after administn. of test compd. (at peak time)","[2]; 0.1 mg/kg, * P < 0.05",+0.12 ± 0.02 ΔmV
same,peak time (preventive effect on ST elevation),[2]; 0.3 mg/kg,0.5 min
same,"ST elevation, administn. of M (8 μg) after administn. of test compd. (at peak time)",[2]; [4],+0.04 ± 0.02 ΔmV
same,peak time (preventive effect on ST elevation),[2]; 1.0 mg/kg,0.5 min
same,"ST elevation, administn. of M (8 μg) after administn. of test compd. (at peak time)","[2]; 1.0 mg/kg, ** P < 0.01",+0.08 ± 0.01 ΔmV
same,preventive effect on the ST elevation (in words),[2],preventive effect on the ST elevation comparable to that of diltiazem hydrochloride
same,"Preventive effect on ST depression, 1 hour",[3]; 3 mg/kg p.o.,+
same,"Preventive effect on ST depression, 3 hours",[3]; 3 mg/kg p.o.,+
same,"Preventive effect on ST depression, 5 hours",[3]; 3 mg/kg p.o.,-
same,"Preventive effect on ST depression, 1 hour",[3]; 10 mg/kg p.o.,+
same,"Preventive effect on ST depression, 5 hours",[3]; 10 mg/kg p.o.,+
same,"Preventive effect on ST depression, 7 hours",[3]; 10 mg/kg p.o.,-
same,"Preventive effect on ST depression, 7 hours",[3]; 30 mg/kg p.o.,+
same,preventive effect on the ST depression (in words),[3],more prolonged preventive effect on the ST depression than diltiazem hydrochloride
"COc1ccc([C@@H]2Sc3ccccc3N(CCN(C)C)C(=O)[C@@H]2OC(C)=O)cc1 [Diltiazem hydrochloride, reference compound]",Peak time (time of maximum hypotensive effect),[1]; 30 mg/kg,0.333 h
same,Peak time (time of maximum hypotensive effect),[1]; 50 mg/kg,0.333 h
same,decrease compared with the initial blood pressure at 5 hours after dosing,[1]; oral,3%
same,reduction of blood pressure (in words),"[1]; oral, 30 mg/kg",did not reduce significantly blood pressures
same,maximum effect (decrease compared with the initial blood pressure),"[1]; oral, 50 mg/kg",13%
same,time of maximum effect,"[1]; oral, 50 mg/kg",20 min
same,peak time (preventive effect on ST elevation),[2]; 0.1 mg/kg,10 min
same,"ST elevation, administn. of M (8 μg) after administn. of test compd. (at peak time)","[2]; 0.1 mg/kg, * P < 0.05",+0.15 ± 0.03 ΔmV
same,peak time (preventive effect on ST elevation),[2]; 0.3 mg/kg,10 min
same,"ST elevation, administn. of M (8 μg) after administn. of test compd. (at peak time)",[2]; [4],+0.06 ± 0.02 ΔmV
same,peak time (preventive effect on ST elevation),[2]; 1.0 mg/kg,5 min
same,"ST elevation, administn. of M (8 μg) after administn. of test compd. (at peak time)","[2]; 1.0 mg/kg, ** P < 0.01",+0.09 ± 0.02 ΔmV
same,"Preventive effect on ST depression, 1 hour",[3]; 3 mg/kg p.o.,-
same,"Preventive effect on ST depression, 3 hours",[3]; 3 mg/kg p.o.,-
same,"Preventive effect on ST depression, 1 hour",[3]; 10 mg/kg p.o.,+
same,"Preventive effect on ST depression, 3 hours",[3]; 10 mg/kg p.o.,+
same,"Preventive effect on ST depression, 5 hours",[3]; 10 mg/kg p.o.,-
same,"Preventive effect on ST depression, 1 hour",[3]; 30 mg/kg p.o.,+
same,"Preventive effect on ST depression, 5 hours",[3]; 30 mg/kg p.o.,+
same,"Preventive effect on ST depression, 7 hours",[3]; 30 mg/kg p.o.,-
"O=C(CCCN1CCN(c2ccc(F)cc2)CC1)NC1c2ccccc2CSc2ccccc21 (stereo not shown) [Example 1(1), 11-[4-[4-(4-fluorophenyl)-1-piperazinyl]butyrylamino]-6,11-dihydrodibenzo[b,e]thiepin]",duration of antihypertensive activity (in words),[1],longer duration of antihypertensive activity than that of the commercially available calcium antagonists
"O=C(CCCN1CCN(c2ccc(F)cc2)CC1)NC1c2ccccc2CSc2cc(F)ccc21 (stereo not shown) [Example 42, 3-fluoro-11-[4[4-(4-fluorophenyl)-1-piperazinyl]butyrylamino]-6,11-dihydrodibenzo[b,e]thiepin]",Peak time (time of maximum hypotensive effect),[1]; 30 mg/kg,4 h
same,maximum hypotensive effect (decrease compared with the initial blood pressure),"[1]; oral, 30 mg/kg",12-14%
same,time of maximum hypotensive effect,"[1]; oral, 30 mg/kg",4 to 5 h
"O=C(CCCN1CCN(c2ccc(F)cc2)CC1)NC1c2ccccc2CS(=O)(=O)c2ccccc21 (stereo not shown) [Example 138, 11-[4-[4-(4-fluorophenyl)-1-piperazinyl]butyrylamino]-6,11-dihydrodibenzo[b,e]thiepin-5,5-dioxide]",Peak time (time of maximum hypotensive effect),[1]; 30 mg/kg,5 h
same,maximum hypotensive effect (decrease compared with the initial blood pressure),"[1]; oral, 30 mg/kg",12-14%
same,time of maximum hypotensive effect,"[1]; oral, 30 mg/kg",4 to 5 h
"COC(=O)C1=C(C)NC(C)=C(C(=O)OC)C1c1ccccc1[N+](=O)[O-] [Nifedipine, reference compound]",Peak time (time of maximum hypotensive effect),[1]; 3 mg/kg,0.5 h
same,decrease compared with the initial blood pressure at 5 hours after dosing,[1]; oral,7%
same,maximum hypotensive effect (decrease compared with the initial blood pressure),"[1]; oral, 3 mg/kg",17%
same,time of maximum hypotensive effect,"[1]; oral, 3 mg/kg",0.5 h
same,peak time (preventive effect on ST elevation),[2]; 0.03 mg/kg,10 min
same,"ST elevation, administn. of M (8 μg) after administn. of test compd. (at peak time)",[2]; 0.03 mg/kg,+0.17 ± 0.02 ΔmV
same,peak time (preventive effect on ST elevation),[2]; 0.1 mg/kg,20 min
same,"ST elevation, administn. of M (8 μg) after administn. of test compd. (at peak time)","[2]; 0.1 mg/kg, * P < 0.05",+0.08 ± 0.02 ΔmV
same,"Preventive effect on ST depression, 1 hour",[3]; 0.01 mg/kg p.o.,-
same,"Preventive effect on ST depression, 3 hours",[3]; 0.01 mg/kg p.o.,-
same,"Preventive effect on ST depression, 1 hour",[3]; 0.1 mg/kg p.o.,+
same,"Preventive effect on ST depression, 3 hours",[3]; 0.1 mg/kg p.o.,-
same,"Preventive effect on ST depression, 5 hours",[3]; 0.1 mg/kg p.o.,-
